Measured values from patent publication US11312724B2 (ASCENTAGE PHARMA (SUZHOU) CO., LTD., priority 2021, dated 2022).

Columns and labels:
MIA PaCa-2 cell = test: Cell proliferation assay (Celltiter-Glo), MIA PaCa-2; assay type: cell-based; details: Homo sapiens, MIA PaCa-2, 72 h, 3 days
Description: (§1) Cell Proliferation Assay:
(§2) NCI-H358 cell and MIA PaCa-2 cell was cultured in RPMI-1640 supplemented with 10% FBS in humidified incubator at 37° C., 5% CO2. To asses the effect of Compounds of the Disclosure on cell proliferation, exponentially growing cells (5000 cells/well) were plated onto 96-well plates. After cell seeding, a representative Compounds of the Disclosure were added to the cell media (in concentrations ranging from 0 to 10 μM, 3/dilution series). After 3 days, 30 μL Celltiter-Glo reagent was added, and the luminescent signal was determined according to supplier's instruction. The dose response curves and IC50 values were generated using Prism.

NCI-H358 cell = test: Cell proliferation assay (Celltiter-Glo), NCI-H358; assay type: cell-based; details: Homo sapiens, NCI-H358, 72 h, 3 days
Description: as §1, §2

Row | SMILES | IC50 (MIA PaCa-2 cell) [nM] | IC50 (NCI-H358 cell) [nM]
1 | C=CC(=O)N1CCN(c2nc(OC[C@@H]3CCCN3C)nc3c2CCC2(C3)CN(C)Cc3ccccc32)C[C@@H]1CC#N (stereo partly drawn) [Cpd. No. 30, 2-((2S)-1-acryloyl-4-(2-methyl-2′-(((S)-1-methylpyrrolidin-2-yl)methoxy)-2,3,5′,8′-tetrahydro-1H,6′H-spiro[isoquinoline-4,7′-quinazolin]-4′-yl)piperazin-2-yl)acetonitrile] | 4780 | 2060
2 | C=CC(=O)N1CCN(c2nc(OC[C@@H]3CCCN3C)nc3c2CCC2(C3)CS(=O)(=O)Cc3ccccc32)C[C@@H]1CC#N (stereo partly drawn) [Cpd. No. 31, 2-((2S)-1-acryloyl-4-(2′-(((S)-1-methylpyrrolidin-2-yl)methoxy)-2,2-dioxido-5′,8′-dihydro-6′H-spiro[isothiochromane-4,7′-quinazolin]-4′-yl)piperazin-2-yl)acetonitrile] | > 10000 | > 10000
3 | C=CC(=O)N1CCN(c2nc(OC[C@@H]3CCCN3C)nc3c2CCC2(COC(C)c4ccccc42)C3)C[C@@H]1CC#N (stereo partly drawn) [Cpd. No. 32, 2-((2S)-1-acryloyl-4-(1-methyl-2′-(((S)-1-methylpyrrolidin-2-yl)methoxy)-5′,8′-dihydro-6′H-spiro[isochromane-4,7′-quinazolin]-4′-yl)piperazin-2-yl)acetonitrile] | 22 | 83
4 | C=CC(=O)N1CCN(c2nc(OC[C@@H]3CCCN3C)nc3c2CCC2(COC(C(F)(F)F)c4ccccc42)C3)C[C@@H]1CC#N (stereo partly drawn) [Cpd. No. 33, 2-((2S)-1-acryloyl-4-(2′-(((S)-1-methylpyrrolidin-2-yl)methoxy)-1-(trifluoromethyl)-5′,8′-dihydro-6′H-spiro[isochromane-4,7′-quinazolin]-4′-yl)piperazin-2-yl)acetonitrile] | 30 | 45
5 | C=CC(=O)N1CCN(c2nc(OC[C@@H]3CCCN3C)nc3c2CCC2(COC(C)(C)c4ccccc42)C3)C[C@@H]1CC#N (stereo partly drawn) [Cpd. No. 34, 2-((2S)-1-acryloyl-4-(1,1-dimethyl-2′-(((S)-1-methylpyrrolidin-2-yl)methoxy)-5′,8′-dihydro-6′H-spiro[isochromane-4,7′-quinazolin]-4′-yl)piperazin-2-yl)acetonitrile] | 750 | 1350
6 | C=CC(=O)N1CCN(c2nc(OC[C@@H]3CCCN3C)nc3c2CCC2(COC(C)c4c(F)cccc42)C3)C[C@@H]1CC#N (stereo partly drawn) [Cpd. No. 35, 2-((2S)-1-acryloyl-4-(8-fluoro-1-methyl-2′-(((S)-1-methylpyrrolidin-2-yl)methoxy)-5′,8′-dihydro-6′H-spiro[isochromane-4,7′-quinazolin]-4′-yl)piperazin-2-yl)acetonitrile] | 20 | 43
7 | C=C(F)C(=O)N1CCN(c2nc(OC[C@@H]3CCCN3C)nc3c2CCC2(COC(C)c4c(F)cccc42)C3)C[C@@H]1CC#N (stereo partly drawn) [Cpd. No. 36, 2-((2S)-4-(8-fluoro-1-methyl-2′-(((S)-1-methylpyrrolidin-2-yl)methoxy)-5′,8′-dihydro-6′H-spiro[isochromane-4,7′-quinazolin]-4′-yl)-1-(2-fluoroacryloyl)piperazin-2-yl)acetonitrile] | 160 | 260
8 | C=CC(=O)N1CCN(c2nc(OC[C@@H]3CCCN3C)nc3c2CCC2(C3)CN(C)C(=O)c3ccccc32)C[C@@H]1CC#N (stereo partly drawn) [Cpd. No. 37, 2-((2S)-1-acryloyl-4-(2-methyl-2′-(((S)-1-methylpyrrolidin-2-yl)methoxy)-1-oxo-2,3,5′,8′-tetrahydro-1H,6′H-spiro[isoquinoline-4,7′-quinazolin]-4′-yl)piperazin-2-yl)acetonitrile] | > 10000 | > 10000
9 | C=CC(=O)N1CCN(c2nc(OC[C@@H]3CCCN3C)nc3c2CCC2(C3)CC3(CC3)c3c(F)cccc32)C[C@@H]1CC#N (stereo partly drawn) [Cpd. No. 38, 2-((2S)-1-acryloyl-4-(4′-fluoro-2″-(((S)-1-methylpyrrolidin-2-yl)methoxy)-5″,8″-dihydro-2′H,6″H-dispiro[cyclopropane-1,3′-indene-1′,7″-quinazolin]-4″-yl)piperazin-2-yl)acetonitrile] | 93 | 290
10 | C=CC(=O)N1CCN(c2nc(OC[C@@H]3CCCN3C)nc3c2CCC2(C3)c3cccc(F)c3C3CC32)C[C@@H]1CC#N (stereo partly drawn) [Cpd. No. 39, 2-((2S)-1-acryloyl-4-(2-fluoro-2′-(((S)-1-methylpyrrolidin-2-yl)methoxy)-1a,5′,6a,8′-tetrahydro-1H,6′H-spiro[cyclopropa[a]indene-6,7′-quinazolin]-4′-yl)piperazin-2-yl)acetonitrile] | 370 | 670
11 | COC/C=C/C(=O)N1CCN(c2nc(OC[C@@H]3CCCN3C)nc3c2CCC2(CCc4ccccc42)C3)C[C@@H]1CC#N (stereo partly drawn) [Cpd. No. 40, 2-((2S)-1-((E)-4-methoxybut-2-enoyl)-4-(2′-(((S)-1-methylpyrrolidin-2-yl)methoxy)-2,3,5′,8′-tetrahydro-6′H-spiro[indene-1,7′-quinazolin]-4′-yl)piperazin-2-yl)acetonitrile] | 440 | 560
12 | CN1CCC[C@H]1COc1nc2c(c(N3CCN(C(=O)/C=C/CN4CC(F)C4)[C@@H](CC#N)C3)n1)CCC1(CCc3ccccc31)C2 (stereo partly drawn) [Cpd. No. 41, 2-((2S)-1-((E)-4-(3-fluoroazetidin-1-yl)but-2-enoyl)-4-(2′-(((S)-1-methylpyrrolidin-2-yl)methoxy)-2,3,5′,8′-tetrahydro-6′H-spiro[indene-1,7′-quinazolin]-4′-yl)piperazin-2-yl)acetonitrile] | 91 | 320
13 | C=C(COC)C(=O)N1CCN(c2nc(OC[C@@H]3CCCN3C)nc3c2CCC2(CCc4ccccc42)C3)C[C@@H]1CC#N (stereo partly drawn) [Cpd. No. 42, 2-((2S)-1-(2-(methoxymethyl)acryloyl)-4-(2′-(((S)-1-methylpyrrolidin-2-yl)methoxy)-2,3,5′,8′-tetrahydro-6′H-spiro[indene-1,7′-quinazolin]-4′-yl)piperazin-2-yl)acetonitrile] | 5800 | 10400
14 | CN1CCC[C@H]1COc1nc2c(c(N3CCN(C(=O)/C=C/CF)[C@@H](CC#N)C3)n1)CCC1(CCc3ccccc31)C2 (stereo partly drawn) [Cpd. No. 43, 2-((2S)-1-((E)-4-fluorobut-2-enoyl)-4-(2′-(((S)-1-methylpyrrolidin-2-yl)methoxy)-2,3,5′,8′-tetrahydro-6′H-spiro[indene-1,7′-quinazolin]-4′-yl)piperazin-2-yl)acetonitrile] | 130 | 120
15 | C=CC(=O)N1CCN(c2nc(OCC34CCCN3CCC4)nc3c2CC[C@@]2(CCc4c(Cl)cccc42)C3)C[C@@H]1CC#N [Cpd. No. 44, 2-((S)-1-acryloyl-4-((R)-4-chloro-2′-((tetrahydro-1H-pyrrolizin-7a(5H)-yl)methoxy)-2,3,5′,8′-tetrahydro-6′H-spiro[indene-1,7′-quinazolin]-4′-yl)piperazin-2-yl)acetonitrile] | 1.5 | 4.6
16 | C=C(F)C(=O)N1CCN(c2nc(OCC34CCCN3CCC4)nc3c2CC[C@@]2(CCc4c(Cl)cccc42)C3)C[C@@H]1CC#N [Cpd. No. 45, 2-((S)-4-((R)-4-chloro-2′-((tetrahydro-1H-pyrrolizin-7a(5H)-yl)methoxy)-2,3,5′,8′-tetrahydro-6′H-spiro[indene-1,7′-quinazolin]-4′-yl)-1-(2-fluoroacryloyl)piperazin-2-yl)acetonitrile] | 2.8 | 7.6
17 | C=CC(=O)N1CCN(c2nc(OCC3CCC4(CC4)N3C)nc3c2CC[C@@]2(CCc4c(Cl)cccc42)C3)C[C@@H]1CC#N (stereo partly drawn) [Cpd. No. 46, 2-((2S)-1-acryloyl-4-((1R)-4-chloro-2′-((4-methyl-4-azaspiro[2.4]heptan-5-yl)methoxy)-2,3,5′,8′-tetrahydro-6′H-spiro[indene-1,7′-quinazolin]-4′-yl)piperazin-2-yl)acetonitrile] | 15 | 25
18 | C=C(F)C(=O)N1CCN(c2nc(OCC34CCCN3CCC4)nc3c2CCC2(CCc4c(C(F)F)cccc42)C3)C[C@@H]1CC#N (stereo partly drawn) [Cpd. No. 49, 2-((2S)-4-(4-(difluoromethyl)-2′-((tetrahydro-1H-pyrrolizin-7a(5H)-yl)methoxy)-2,3,5′,8′-tetrahydro-6′H-spiro[indene-1,7′-quinazolin]-4′-yl)-1-(2-fluoroacryloyl)piperazin-2-yl)acetonitrile] | 60 | 61
19 | C=C(F)C(=O)N1CCN(c2nc(OC[C@@]34CCCN3C[C@H](F)C4)nc3c2CC[C@@]2(CCc4c(Cl)cccc42)C3)C[C@@H]1CC#N [Cpd. No. 50, 2-((S)-4-((R)-4-chloro-2′-(((2R,7aS)-2-fluorotetrahydro-1H-pyrrolizin-7a(5H)-yl)methoxy)-2,3,5′,8′-tetrahydro-6′H-spiro[indene-1,7′-quinazolin]-4′-yl)-1-(2-fluoroacryloyl)piperazin-2-yl)acetonitrile] | 2.9 | 1.2
20 | C=C(F)C(=O)N1CCN(c2nc(OCC34CCCN3CC(F)(F)C4)nc3c2CC[C@@]2(CCc4c(Cl)cccc42)C3)C[C@@H]1CC#N (stereo partly drawn) [Cpd. No. 51, 2-((2S)-4-((1R)-4-chloro-2′-((2,2-difluorotetrahydro-1H-pyrrolizin-7a(5H)-yl)methoxy)-2,3,5′,8′-tetrahydro-6′H-spiro[indene-1,7′-quinazolin]-4′-yl)-1-(2-fluoroacryloyl)piperazin-2-yl)acetonitrile] | 110 | 52
21 | C=C(F)C(=O)N1CCN(c2nc(OCC3CCC4CCCN43)nc3c2CC[C@@]2(CCc4c(Cl)cccc42)C3)C[C@@H]1CC#N (stereo partly drawn) [Cpd. No. 52, 2-((2S)-4-((1R)-4-chloro-2′-((hexahydro-1H-pyrrolizin-3-yl)methoxy)-2,3,5′,8′-tetrahydro-6′H-spiro[indene-1,7′-quinazolin]-4′-yl)-1-(2-fluoroacryloyl)piperazin-2-yl)acetonitrile] | 340 | 260
